Test results: patent US9926297B2, “Bicyclic AZA compounds as muscarinic M1 receptor and/or M4 receptor agonists” (Heptares Therapeutics Limited, priority 2014, dated 2018)

How the values were obtained:
[1] = biological target: T1, human muscarinic M1 receptor (Homo sapiens, UniProt P11229); experiment: Alphascreen Surefire phospho-ERK1/2 functional assay, M1; format: cell-based; conditions: for EC50: CHO cells stably expressing human M1, phospho-ERK1/2, * = variable results, read-out: pEC50 M1 (converted); for Emax: CHO, read-out: % Emax cf. ACh, M1, CHO cells stably expressing human M1, relative to ACh
T1 sequence (P11229 1-460): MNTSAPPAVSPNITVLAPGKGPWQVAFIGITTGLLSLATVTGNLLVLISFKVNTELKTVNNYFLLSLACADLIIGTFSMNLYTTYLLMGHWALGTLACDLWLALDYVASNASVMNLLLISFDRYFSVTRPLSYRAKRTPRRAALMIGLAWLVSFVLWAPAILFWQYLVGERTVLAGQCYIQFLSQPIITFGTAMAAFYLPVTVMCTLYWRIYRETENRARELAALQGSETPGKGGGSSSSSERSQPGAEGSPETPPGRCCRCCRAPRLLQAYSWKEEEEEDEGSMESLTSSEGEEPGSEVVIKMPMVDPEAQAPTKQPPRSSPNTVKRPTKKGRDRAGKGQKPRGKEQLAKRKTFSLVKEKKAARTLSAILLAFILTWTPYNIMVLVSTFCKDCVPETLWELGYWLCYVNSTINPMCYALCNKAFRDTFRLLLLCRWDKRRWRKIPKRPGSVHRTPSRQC

[2] = biological target: T2, human muscarinic M4 receptor (Homo sapiens, UniProt P08173); experiment: Alphascreen Surefire phospho-ERK1/2 functional assay, M4; format: cell-based; conditions: for EC50: CHO cells stably expressing human M4, phospho-ERK1/2, * = variable results, read-out: pEC50 M4 (converted); for Emax: CHO, read-out: % Emax cf. ACh, M4, CHO cells stably expressing human M4, relative to ACh
T2 construct: expressed in transfected cells
T2 sequence (P08173 1-479): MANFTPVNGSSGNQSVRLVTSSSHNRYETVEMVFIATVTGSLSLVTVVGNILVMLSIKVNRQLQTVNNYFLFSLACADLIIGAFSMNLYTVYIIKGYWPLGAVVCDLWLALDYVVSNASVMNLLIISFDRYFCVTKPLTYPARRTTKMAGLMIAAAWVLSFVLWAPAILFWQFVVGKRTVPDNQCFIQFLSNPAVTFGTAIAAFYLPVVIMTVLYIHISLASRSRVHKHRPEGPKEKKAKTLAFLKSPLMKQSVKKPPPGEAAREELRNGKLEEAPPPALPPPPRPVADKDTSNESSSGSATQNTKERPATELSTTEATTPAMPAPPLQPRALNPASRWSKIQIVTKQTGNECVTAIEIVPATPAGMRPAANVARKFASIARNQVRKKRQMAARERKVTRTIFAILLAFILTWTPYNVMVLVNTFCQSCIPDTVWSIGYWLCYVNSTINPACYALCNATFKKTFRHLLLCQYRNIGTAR
Method: (§1) CHO cells stably expressing the human muscarinic M1, M2, M3 or M4 receptor were plated (25K/well) onto 96-well tissue culture plates in MEM-alpha+10% dialysed FBS. Once adhered, cells were serum-starved overnight. Agonist stimulation was performed by the addition of 5 μL agonist to the cells for 5 min (37° C.). Media was removed and 50 μL of lysis buffer added. After 15 min, a 4 μL sample was transferred to 384-well plate and 7 μL of detection mixture added. Plates were incubated for 2 h with gentle agitation in the dark and then read on a PHERAstar plate reader.
(§2) pEC50 and Emax figures were calculated from the resulting data for each receptor subtype.

[3] = biological target: T3, human muscarinic M2 receptor (Homo sapiens, UniProt P08172); experiment: Alphascreen Surefire phospho-ERK1/2 functional assay, M2; conditions: for Emax: CHO, read-out: % Emax cf. ACh, M2, CHO cells stably expressing human M2, relative to ACh
T3 sequence (P08172 1-466): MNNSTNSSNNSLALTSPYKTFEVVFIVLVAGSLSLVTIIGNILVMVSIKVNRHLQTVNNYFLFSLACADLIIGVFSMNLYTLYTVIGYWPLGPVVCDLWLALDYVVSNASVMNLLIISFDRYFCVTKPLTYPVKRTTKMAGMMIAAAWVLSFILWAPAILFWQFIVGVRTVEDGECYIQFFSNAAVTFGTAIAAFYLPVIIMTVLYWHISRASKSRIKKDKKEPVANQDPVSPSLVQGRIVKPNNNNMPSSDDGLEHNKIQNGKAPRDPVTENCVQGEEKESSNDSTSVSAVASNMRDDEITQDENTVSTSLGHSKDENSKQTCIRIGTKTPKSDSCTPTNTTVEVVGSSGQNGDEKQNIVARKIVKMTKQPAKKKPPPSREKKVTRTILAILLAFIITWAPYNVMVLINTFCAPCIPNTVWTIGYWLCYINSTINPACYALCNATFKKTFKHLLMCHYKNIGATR

[4] = biological target: human muscarinic M3 receptor (Homo sapiens, UniProt P20309); experiment: Alphascreen Surefire phospho-ERK1/2 functional assay, M3; conditions: for Emax: CHO, read-out: % Emax cf. ACh, M3, CHO cells stably expressing human M3, relative to ACh; for EC50: pEC50 M3, CHO cells stably expressing human M3, phospho-ERK1/2, * = variable results
human muscarinic M3 receptor, sequence (P20309 whole entry): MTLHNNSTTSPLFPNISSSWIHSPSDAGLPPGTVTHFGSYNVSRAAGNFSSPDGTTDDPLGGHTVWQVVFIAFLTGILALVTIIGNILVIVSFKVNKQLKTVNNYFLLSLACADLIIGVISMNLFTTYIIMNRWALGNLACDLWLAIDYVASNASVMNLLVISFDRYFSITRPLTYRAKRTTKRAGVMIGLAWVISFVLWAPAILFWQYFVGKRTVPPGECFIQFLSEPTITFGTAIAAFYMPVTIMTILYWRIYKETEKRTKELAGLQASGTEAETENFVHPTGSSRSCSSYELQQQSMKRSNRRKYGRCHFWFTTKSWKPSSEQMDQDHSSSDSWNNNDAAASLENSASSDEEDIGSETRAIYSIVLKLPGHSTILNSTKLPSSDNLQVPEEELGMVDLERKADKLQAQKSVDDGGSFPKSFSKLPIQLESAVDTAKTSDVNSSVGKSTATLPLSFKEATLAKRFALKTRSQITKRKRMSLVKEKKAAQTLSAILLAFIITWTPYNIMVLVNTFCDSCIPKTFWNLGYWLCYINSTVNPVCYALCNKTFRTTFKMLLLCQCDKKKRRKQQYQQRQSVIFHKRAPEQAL
Method: as §1, §2

CCOC(=O)N1CCC2(CC(N3CCC([C@@H]4CCCN4C(=O)OC)CC3)C2)C1 (single isomer, unassigned) [2-12 Isomer 2] showed an EC50 [1] greater than 20000 nM, an Emax [1] of 9% and an EC50 [2] of 10 nM. The Emax [2] was 57%, the EC50 [3] was greater than 20000 nM and the Emax [3] was 9%. The Emax [4] was 6% and the EC50 [4] was greater than 20000 nM.

CCOC(=O)N1CCC2(CC(N3CCC([C@H]4CCCN4C(=O)OC)CC3)C2)C1 (single isomer, unassigned) [2-13 Isomer 2] was tested, and the EC50 [1] was 10000 nM, the Emax [1] was 69% and the EC50 [2] was 158 nM. For the same molecule, the Emax [2] was 57%, the EC50 [3] was greater than 20000 nM and the Emax [3] was 7%. For the same molecule, the Emax [4] was 24% and the EC50 [4] was greater than 20000 nM.

CCOC(=O)N1CCC2(CC(N3CCC(C4CCCN4C(=O)OCC)CC3)C2)C1 (single isomer, unassigned) [2-14 Isomer 2, ethyl 2-{4-[1-(ethoxycarbonyl)pyrrolidin-2-yl]piperidin-1-yl}-6-azaspiro[3.4]octane-6-carboxylate] was tested, and the EC50 [1] was greater than 20000 nM, the Emax [1] was 43% and the EC50 [2] was 15.8 nM. For the same molecule, the Emax [2] was 91%, the EC50 [3] was greater than 20000 nM and the Emax [3] was 3%. The Emax [4] was 7% and the EC50 [4] was greater than 20000 nM.

CNC(=O)N1CCC[C@H]1C1CCN(C2CC3(CCN(C(=O)OC)C3)C2)CC1 (single isomer, unassigned) [2-15 Isomer 2] was tested, and the EC50 [1] was 398 nM, the Emax [1] was 72% and the EC50 [2] was 15.8 nM. It also gave an Emax [2] of 111%, an EC50 [3] greater than 20000 nM and an Emax [3] of 9%. It also gave an Emax [4] of 9% and an EC50 [4] greater than 20000 nM.

CCOC(=O)N1CCC2(CC(N3CCC(C4CCCN4C(=O)NC)CC3)C2)C1 (single isomer, unassigned) [2-16 Isomer 2, ethyl 2-{4-[1-(methylcarbamoyl)pyrrolidin-2-yl]piperidin-1-yl}-6-azaspiro[3.4]octane-6-carboxylate] gave an EC50 [1] of 251 nM, an Emax [1] of 41% and an EC50 [2] of 6.31 nM. The Emax [2] was 114%, the EC50 [3] was greater than 20000 nM and the Emax [3] was 53%. It also gave an Emax [4] of 7% and an EC50 [4] greater than 20000 nM.

Molecule CCOC(=O)N1CCC2(CC(N3CCC([C@@H]4CCCN4C(=O)NC)CC3)C2)C1 (single isomer, unassigned) [2-17 Isomer 2] has an EC50 [1] of 200 nM, an Emax [1] of 72% and an EC50 [2] of 3.16 nM. It also gave an Emax [2] of 116%, an EC50 [3] greater than 20000 nM and an Emax [3] of 5%. It also gave an Emax [4] of 4% and an EC50 [4] greater than 20000 nM.

In the case of CCOC(=O)N1CCC2(CC(N3CCC([C@H]4CCCN4C(=O)NC)CC3)C2)C1 (single isomer, unassigned) [2-18 Isomer 2], the EC50 [1] is reported as greater than 20000 nM, the Emax [1] is reported as 8% and the EC50 [2] is reported as 79.4 nM. For the same molecule, the Emax [2] was 56%, the EC50 [3] was greater than 20000 nM and the Emax [3] was 1%. It also gave an Emax [4] of 4% and an EC50 [4] greater than 20000 nM.

For CCNC(=O)N1CCCC1C1CCN(C2CC3(CCN(C(=O)OCC)C3)C2)CC1 (single isomer, unassigned) [2-19 Isomer 2, ethyl 2-{4-[1-(ethylcarbamoyl)pyrrolidin-2-yl]piperidin-1-yl}-6-azaspiro[3.4]octane-6-carboxylate], the EC50 [1] was 631 nM, the Emax [1] was 44% and the EC50 [2] was 7.94 nM. For the same molecule, the Emax [2] was 113%, the EC50 [3] was greater than 20000 nM and the Emax [3] was 3%. The Emax [4] was 10% and the EC50 [4] was greater than 20000 nM.

CCOC(=O)N1CCC2(CC(N3CCC(C4CCCN4C(=O)N(C)C)CC3)C2)C1 (single isomer, unassigned) [2-20 Isomer 2, ethyl 2-{4-[1-(dimethylcarbamoyl)pyrrolidin-2-yl]piperidin-1-yl}-6-azaspiro[3.4]octane-6-carboxylate] gave an EC50 [1] greater than 20000 nM, an Emax [1] of 24% and an EC50 [2] of 31.6 nM. For the same molecule, the Emax [2] was 106%, the EC50 [3] was greater than 20000 nM and the Emax [3] was 1%. The Emax [4] was 6% and the EC50 [4] was greater than 20000 nM.

Work on CCOC(=O)N1CCC2(CC(N3CCC([C@@H]4CCCN4C(=O)N(C)C)CC3)C2)C1 (single isomer, unassigned) [2-21 Isomer 2] yielded an EC50 [1] of 631 nM, an Emax [1] of 46% and an EC50 [2] of 7.94 nM. For the same molecule, the Emax [2] was 113%, the EC50 [3] was greater than 20000 nM and the Emax [3] was 4%. For the same molecule, the Emax [4] was 2% and the EC50 [4] was greater than 20000 nM.

For CCOC(=O)N1CCC2(CC(N3CCC(C4CCCN4C(=O)CNC)CC3)C2)C1 (single isomer, unassigned) [2-23 Isomer 2, ethyl 2-{4-[1-(N-methylglycyl)pyrrolidin-2-yl]piperidin-1-yl}-6-azaspiro[3.4]octane-6-carboxylate], the EC50 [1] was 1260 nM, the Emax [1] was 65% and the EC50 [2] was 50.1 nM. The Emax [2] was 104%, the EC50 [3] was greater than 20000 nM and the Emax [3] was 3%. For the same molecule, the Emax [4] was 9% and the EC50 [4] was greater than 20000 nM.

CCOC(=O)N1CCC2(CC(N3CCC(C4CCCN4C(=O)NOC)CC3)C2)C1 (single isomer, unassigned) [2-24 Isomer 2, ethyl 2-{4-[1-(methoxycarbamoyl)pyrrolidin-2-yl]piperidin-1-yl}-6-azaspiro[3.4]octane-6-carboxylate] was tested, and the EC50 [1] was 631 nM, the Emax [1] was 37% and the EC50 [2] was 20 nM. It also gave an Emax [2] of 121%, an EC50 [3] greater than 20000 nM and an Emax [3] of 5%. It also gave an Emax [4] of 9% and an EC50 [4] greater than 20000 nM.

CCOC(=O)N1CCC2(CC(N3CCC([C@@H]4CCCN4C(=O)NC(C)C)CC3)C2)C1 (single isomer, unassigned) [2-25 Isomer 2] gave an EC50 [1] of 631 nM, an Emax [1] of 74% and an EC50 [2] of 10 nM. The Emax [2] was 86%, the EC50 [3] was greater than 20000 nM and the Emax [3] was 6%. For the same molecule, the Emax [4] was 2% and the EC50 [4] was greater than 20000 nM.

CCOC(=O)N1CCC2(CC(N3CCC([C@@H]4CCCN4C(=O)NCC(F)(F)F)CC3)C2)C1 (single isomer, unassigned) [2-26 Isomer 2] was tested, and the EC50 [1] was 12.6 nM, the Emax [1] was 92% and the EC50 [2] was 6.31 nM. The Emax [2] was 99%, the EC50 [3] was greater than 20000 nM and the Emax [3] was 66%. The Emax [4] was 4% and the EC50 [4] was greater than 20000 nM.

CCOC(=O)N1CCC2(CC(N3CCC([C@@H]4CCCN4C(=O)N4CCC4)CC3)C2)C1 (single isomer, unassigned) [2-27 Isomer 2] was tested, and the EC50 [1] was 31.6 nM, the Emax [1] was 24% and the EC50 [2] was 10 nM. For the same molecule, the Emax [2] was 73%, the EC50 [3] was greater than 20000 nM and the Emax [3] was 0.4%. It also gave an Emax [4] of 15% and an EC50 [4] greater than 20000 nM.

With CCOC(=O)N1CCC2(CC(N3CCC([C@@H]4CCCN4C(=O)N4CCOCC4)CC3)C2)C1 (single isomer, unassigned) [2-28 Isomer 2] the EC50 [1] was greater than 20000 nM, the Emax [1] was 7% and the EC50 [2] was 25.1 nM. For the same molecule, the Emax [2] was 63%, the EC50 [3] was greater than 20000 nM and the Emax [3] was 3%. The Emax [4] was 5% and the EC50 [4] was greater than 20000 nM.

CCOC(=O)N1CCC2(CC(N3CCC([C@@H]4CCCN4C(=O)NC4CC4)CC3)C2)C1 (single isomer, unassigned) [2-29 Isomer 2] gave an EC50 [1] of 501 nM, an Emax [1] of 60% and an EC50 [2] of 15.8 nM. The Emax [2] was 110%, the EC50 [3] was greater than 20000 nM and the Emax [3] was 5%. For the same molecule, the Emax [4] was 13% and the EC50 [4] was greater than 20000 nM.

CCOC(=O)N1CCC2(CC(N3CCC([C@@H]4CCCN4C(=O)NC4CCC4)CC3)C2)C1 (single isomer, unassigned) [2-30 Isomer 2] gave an EC50 [1] of 501 nM, an Emax [1] of 34% and an EC50 [2] of 15.8 nM. The Emax [2] was 97%, the EC50 [3] was greater than 20000 nM and the Emax [3] was 52%. It also gave an Emax [4] of 13% and an EC50 [4] greater than 20000 nM.
